From the Kinase Knowledgebase extract (Sharma et al. 2016)

Molecular target: MAPK14 (human) (UniProt Q16539)
Assay: In vitro Inhibition of VEGF Stimulated MAPK Activation

MAPK14 (human), sequence (Q16539 whole entry, looked up): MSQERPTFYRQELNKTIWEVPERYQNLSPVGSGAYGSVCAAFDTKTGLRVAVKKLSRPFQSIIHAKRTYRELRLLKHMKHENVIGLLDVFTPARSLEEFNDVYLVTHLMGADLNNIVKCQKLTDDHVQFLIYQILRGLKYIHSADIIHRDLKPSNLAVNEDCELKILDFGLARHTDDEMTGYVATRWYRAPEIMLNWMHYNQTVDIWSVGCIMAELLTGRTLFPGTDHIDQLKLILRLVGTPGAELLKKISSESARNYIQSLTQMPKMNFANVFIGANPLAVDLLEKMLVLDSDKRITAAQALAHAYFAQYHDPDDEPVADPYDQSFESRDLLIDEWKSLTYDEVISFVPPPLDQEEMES

SMILES	IC50 [nM]
COc1cc2nccc(Oc3ccc(NC(=O)Nc4ccc(Cl)cn4)c(C)c3C)c2cc1OC	4
C#CCNC(=O)Nc1ccc(Oc2ncnc3cc(OC)c(OC)cc23)cc1	67
COc1cc2nccc(Oc3ccc(NC(=O)Nc4ccccc4C)c(Cl)c3)c2cc1OC	0.6
COc1cc2nccc(Oc3ccc(NC(=O)Nc4ccc(Br)cn4)c(Cl)c3)c2cc1OC	11
CCCNC(=O)Nc1ccc(Oc2ncnc3cc(OC)c(OC)cc23)c(C)c1	518
COc1cc2c(Oc3ccc(NC(=O)Nc4ccc(F)cc4F)c(F)c3)ccnc2cc1OCCN1CCOCC1	0.5
COc1cc2nccc(Oc3ccc(NC(=O)Nc4ccc(C)cn4)c(Cl)c3)c2cc1OC	8.5
CCCCCNC(=O)Nc1ccc(Oc2ncnc3cc(OC)c(OC)cc23)cc1Cl	4.1
COc1cc2nccc(Oc3ccc(NC(=O)Nc4ccc(C)cn4)c(C)c3C)c2cc1OC	4.2
CCCCNC(=O)Nc1ccc(Oc2ncnc3cc(OC)c(OC)cc23)c(C)c1	450
COc1ccccc1NC(=O)Nc1ccc(Oc2ncnc3cc(OC)c(OC)cc23)cc1C	< 1
CCCNC(=O)Nc1ccc(Oc2ccnc3cc(OC)c(OC)cc23)cc1F	2.9
CCCNC(=O)Nc1ccc(Oc2ccnc3cc(OC)c(OC)cc23)cc1[N+](=O)[O-]	4
COc1cc2ncnc(Oc3ccc(NC(=O)Nc4ccc(Cl)cn4)c(Cl)c3)c2cc1OC	58
COc1cc2ncnc(Oc3ccc(NC(=O)Nc4ccc(F)cc4)c(Cl)c3)c2cc1OC	0.7
COc1cc2nccc(Oc3ccc(NC(=O)Nc4cccc(C)n4)c(C)c3C)c2cc1OC	3.7
COc1ccccc1NC(=O)Nc1ccc(Oc2ccnc3cc(OC)c(OC)cc23)c(C)c1C	1.7
COc1cc2nccc(Oc3ccc(NC(=O)Nc4ccc(Cl)cc4C)c(C)c3C)c2cc1OC	7.3
CCNC(=O)Nc1ccc(Oc2ncnc3cc(OC)c(OC)cc23)cc1Cl	8
COc1cc2nccc(Oc3ccc(NC(=O)Nc4cccc(F)c4OC)c(C)c3C)c2cc1OC	5.3
COc1cc2nccc(Oc3ccc(NC(=O)Nc4ccccn4)c(C)c3C)c2cc1OC	3.5
CCC(C)NC(=O)Nc1ccc(Oc2ncnc3cc(OC)c(OC)cc23)cc1F (stereo not drawn)	42

SMILES	IC50 [nM]
CCCCNC(=O)Nc1ccc(Oc2ncnc3cc(OC)c(OC)cc23)cc1Cl	71
COc1ccccc1NC(=O)Nc1cc(C)c(Oc2ccnc3cc(OCCN4CCOCC4)c(OC)cc23)cc1C	5.9
CCC(C)NC(=O)Nc1ccc(Oc2ncnc3cc(OC)c(OC)cc23)cc1 (stereo not drawn)	345
COc1cc2nccc(Oc3ccc(NC(=O)Nc4cccc(C)n4)c(Cl)c3)c2cc1OC	3.4
COc1cc2nccc(Oc3ccc(NC(=O)Nc4ccc(F)cc4C)c(C)c3C)c2cc1OC	3.9
COc1ccccc1NC(=O)Nc1ccc(Oc2ncnc3cc(OC)c(OC)cc23)cc1F	< 1
CCCNC(=O)Nc1ccc(Oc2ccnc3cc(OC)c(OC)cc23)cc1Cl	2.2
COc1cc2nccc(Oc3ccc(NC(=O)Nc4ccccc4C)c(C)c3C)c2cc1OC	2.5
CCCNC(=O)Nc1ccc(Oc2ncnc3cc(OC)c(OC)cc23)cc1Cl	16
C=CCNC(=O)Nc1ccc(Oc2ncnc3cc(OC)c(OC)cc23)cc1Cl	13
COc1cc2ncnc(Oc3ccc(NC(=O)NCc4ccccn4)c(Cl)c3)c2cc1OC	> 1000
COc1cc2ncnc(Oc3ccc(NC(=O)NCc4ccc(F)cc4F)cc3)c2cc1OC	6800
COCCOc1cc2nccc(Oc3ccc(NC(=O)Nc4ccccc4OC)c(Cl)c3)c2cc1OC	2.8
CCC(C)NC(=O)Nc1ccc(Oc2ncnc3cc(OC)c(OC)cc23)cc1Cl (stereo not drawn)	30
COCCOc1cc2nccc(Oc3ccc(NC(=O)Nc4ccc(F)cc4F)c(Cl)c3)c2cc1OC	0.5
COc1cc2ncnc(Oc3ccc(NC(=O)NCc4ccc(F)cc4F)c(F)c3)c2cc1OC	14
COc1ccccc1NC(=O)Nc1cc(C)c(Oc2ccnc3cc(OC)c(OC)cc23)cc1C	3.8
COc1cc2nccc(Oc3cc(C)c(NC(=O)Nc4ccccc4C)cc3C)c2cc1OC	5.9
COc1ccc(NC(=O)Nc2ccc(Oc3ccnc4cc(OC)c(OC)cc34)cc2Cl)cc1	0.4
CCCCNC(=O)Nc1ccc(Oc2ccnc3cc(OC)c(OC)cc23)cc1F	5.1
C#CCNC(=O)Nc1ccc(Oc2ncnc3cc(OC)c(OC)cc23)cc1F	46
COc1ccc(NC(=O)Nc2cc(C)c(Oc3ccnc4cc(OC)c(OC)cc34)cc2C)cc1	4.3

SMILES	IC50 [nM]
CCCCNC(=O)Nc1ccc(Oc2ncnc3cc(OC)c(OC)cc23)cc1F	45
COc1cc2ncnc(Oc3ccc(NC(=O)Nc4ccc(F)cc4)cc3)c2cc1OC	< 2
COc1cc2c(Oc3cc(C)c(NC(=O)Nc4ccc(F)cc4F)cc3C)ccnc2cc1OCCN1CCOCC1	4.4
CCC(C)NC(=O)Nc1ccc(Oc2ccnc3cc(OC)c(OC)cc23)cc1F (stereo not drawn)	7.8
CCCCCNC(=O)Nc1ccc(Oc2ncnc3cc(OC)c(OC)cc23)cc1	21
CCCCNC(=O)Nc1ccc(Oc2ncnc3cc(OC)c(OC)cc23)cc1C	53
COc1ccc(NC(=O)Nc2cc(C)c(Oc3ccnc4cc(OC)c(OC)cc34)cc2C)c(OC)n1	2
COc1cc2nccc(Oc3ccc(NC(=O)NCc4ccc(F)cc4F)c(F)c3)c2cc1OC	1.8
COc1cc2nccc(Oc3ccc(NC(=O)Nc4ccc(F)cc4F)c([N+](=O)[O-])c3)c2cc1OC	0.5
COc1ccccc1NC(=O)Nc1ccc(Oc2ncnc3cc(OC)c(OC)cc23)cc1Cl	0.6
COCCOc1cc2nccc(Oc3cc(C)c(NC(=O)Nc4ccccc4OC)cc3C)c2cc1OC	5.8
COc1cc2ncnc(Oc3ccc(NC(=O)Nc4ccccc4C)cc3)c2cc1OC	6
C=CCNC(=O)Nc1ccc(Oc2ncnc3cc(OC)c(OC)cc23)cc1	45
COc1cc2nccc(Oc3cc(C)c(NC(=O)Nc4ccc(F)cc4F)cc3C)c2cc1OC	2.3
COCCOc1cc2nccc(Oc3ccc(NC(=O)Nc4ccc(F)cc4F)c(C)c3C)c2cc1OC	5.1
COCCOc1cc2nccc(Oc3cc(C)c(NC(=O)Nc4ccc(F)cc4F)cc3C)c2cc1OC	5.1
CCCNC(=O)Nc1ccc(Oc2ncnc3cc(OC)c(OC)cc23)cc1	42
COc1cc2nccc(Oc3c(Cl)cc(NC(=O)Nc4ccc(F)cc4F)cc3Cl)c2cc1OC	4.3
COc1ccccc1NC(=O)Nc1ccc(Oc2ccnc3cc(OC)c(OC)cc23)cc1Cl	0.6
COCCOc1cc2nccc(Oc3ccc(NC(=O)Nc4ccccc4OC)c(C)c3C)c2cc1OC	6.5
CCNC(=O)Nc1ccc(Oc2ccnc3cc(OC)c(OC)cc23)cc1F	11
COc1ccc(NC(=O)Nc2ccc(Oc3ccnc4cc(OC)c(OC)cc34)c(C)c2C)cc1	3.3

SMILES	IC50 [nM]
COc1cc2nccc(Oc3cc(C)c(NC(=O)Nc4ccc(F)cc4C)cc3C)c2cc1OC	12
COc1cc2ncnc(Oc3ccc(NC(=O)Nc4ccc(F)cc4F)c(C)c3)c2cc1OC	5.3
COc1cc2ncnc(Oc3ccc(NC(=O)Nc4ccc(F)cc4F)c(F)c3)c2cc1OC	1.8
COc1cc2ncnc(Oc3ccc(NC(=O)Nc4ccc(F)cc4)c(C)c3)c2cc1OC	2.3
CCCNC(=O)Nc1ccc(Oc2ncnc3cc(OC)c(OC)cc23)cc1C	150
C=CCNC(=O)Nc1ccc(Oc2ccnc3cc(OC)c(OC)cc23)cc1F	2.1
COc1cc2nccc(Oc3ccc(NC(=O)Nc4ccc(Br)cn4)c(C)c3C)c2cc1OC	4.4
CCNC(=O)Nc1ccc(Oc2ncnc3cc(OC)c(OC)cc23)cc1	70
COc1cc2ncnc(Oc3ccc(NC(=O)NCc4ccccn4)cc3)c2cc1OC	750
COc1cc2nccc(Oc3ccc(NC(=O)NCC(C)C)c(F)c3)c2cc1OC	15
COc1cc2nccc(Oc3ccc(NC(=O)Nc4ccc(Cl)cn4)c(Cl)c3)c2cc1OC	2.9
COc1cc2ncnc(Oc3ccc(NC(=O)Nc4ccccc4C)c(F)c3)c2cc1OC	2.7
COc1cc2nccc(Oc3ccc(NC(=O)Nc4ccc(F)cc4C)c(Cl)c3)c2cc1OC	0.7
COc1cc2nccc(Oc3ccc(NC(=O)Nc4cccc5ccccc45)c(Cl)c3)c2cc1OC	5.4
COc1cc2ncnc(Oc3ccc(NC(=O)Nc4ccc(F)cc4)cc3C)c2cc1OC	5.2
COc1ccccc1NC(=O)Nc1ccc(Oc2ncnc3cc(OC)c(OC)cc23)cc1	1.2
CCCNC(=O)Nc1ccc(Oc2ncnc3cc(OC)c(OC)cc23)cc1[N+](=O)[O-]	10.2
COc1cc2nccc(Oc3cc(C)c(NC(=O)Nc4cccc(F)c4OC)cc3C)c2cc1OC	4.9
COc1cc2nccc(Oc3ccc(NC(=O)Nc4ccc(F)cc4F)c(C)c3C)c2cc1OC	0.6
COc1cc2ncnc(Oc3ccc(NC(=O)Nc4ccc(F)cc4F)cc3C)c2cc1OC	8.8
COc1cc2ncnc(Oc3ccc(NC(=O)NCc4ccc(F)cc4F)c(Cl)c3)c2cc1OC	3.8
C#CCNC(=O)Nc1ccc(Oc2ccnc3cc(OC)c(OC)cc23)cc1F	5.2
